# Experimental data reported in patent US20220112237A1, “AMINO ACID COMPOSITION HAVING CO-AMORPHOUS STRUCTURE” (AJINOMOTO CO., INC., priority 2019, published 2022).
# Key:
# [1] = Test to confirm the dissolved amount (Tyr concentration of supernatant by HPLC); format: physicochemical; settings: 130 mg in 100 mL water, pH 6.5-7.5, 25° C., stirred, after 24 hours
# Procedure: […] After the powder was dissolved completely, the pH was adjusted using 5 mol/L hydrochloric acid to be within the range of 6.5-7.5. Bottles A-D were immersed in a water bath (“NCG-3300”, manufactured by Tokyo Rikakikai Co., Ltd.) at 25° C., and bottles A and C were stirred by the magnetic stirrer, and bottles B and D were allowed to stand without stirring. After 2 hours, 2 mL was sampled from each bottle, and filtered using a 0.45 μm filter (“Millex”, Merck). The filtered sample was diluted 50 times, and the Tyr concentration of the supernatant was determined using high-performance liquid chromatography (HPLC) (“1100 Series”, manufactured by Agilent).
# The above process was conducted again after 24 hours, 48 hours, and 333 hours. In the drawing, ◯, Δ, ● and ▴ represent A (stirred, 138 mg), B (allowed to stand, 138 mg), C (stirred, 220 mg) and D (allowed to stand, 220 mg), respectively. […]
# After 5 minutes, 10 minutes, 30 minutes, 1 hour, 2 hours, 24 hours, and 168 hours from the start of stirring, 2 mL was sampled from each sample bottle, and filtered using the 0.45 […] filter (“Millex”, Merck). The filtered sample was diluted 50 times, and the Tyr concentration of the supernatant was determined using the high-performance liquid chromatography (HPLC) (“1100 Series”, manufactured by Agilent).
# [2] = Confirmation of formation of amorphous product by powder X-ray diffraction; format: physicochemical; settings: Cys2 with Arg or Cys2 alone, ball mill as Example 1, 30° C., FIG. 6
# Procedure: The solid powder obtained in (1) was measured by the powder X-ray diffraction apparatus (“Empyrean”, manufactured by Malvern Panalytical), and the powder X-ray diffraction patterns of the solid were obtained. In the drawing, line a represents the pattern of the mixture at time zero, line b represents time zero plus 4 hours, and line c represents time zero plus 12 hours. As a result, a well-defined peak characteristic of crystal structure was not found. From this, it was confirmed that the solid obtained in (1) was amorphous.
# The solid obtained in (1) was measured by the same powder X-ray diffraction apparatus as Example 1, and the powder X-ray diffraction patterns of the solid are shown in FIG. 4.
# The solid obtained in (1) was measured by the same powder X-ray diffraction apparatus as Example 1, and the powder X-ray diffraction patterns were obtained. […]
# The solid obtained in (1) was measured by the same powder X-ray diffraction apparatus as Example 1, and the powder X-ray diffraction patterns of the solid are shown in FIG. 7.
# The solid obtained in (1) was measured by the same powder X-ray diffraction apparatus as Example 1, and the powder X-ray diffraction patterns of the solid are shown in FIG. 8.
# The solid obtained in (1) was measured by the same powder X-ray diffraction apparatus as Example 1, and the powder X-ray diffraction patterns of the solid are shown in FIG. 9. […]
Tyr concentration of the supernatant [1],Formation of amorphous product after pulverization [2],Structure (SMILES)
430 mg/L,–,"N[C@@H](Cc1ccc(O)cc1)C(=O)O [Tyr crystal, tyrosine]"
–,the crystal property remained,"N[C@@H](CSSC[C@H](N)C(=O)O)C(=O)O [compound 7, Cystine]"
